From the supplement of paper PMC10307832

Assays:
Test in all cases: relative viability (nuclei count vs DMSO), 5 days (fraction); higher = more cells survive
Alisertib + Phenformin = compound: COc1cc(Nc2ncc3c(n2)-c2ccc(Cl)cc2C(c2c(F)cccc2OC)=NC3)ccc1C(=O)O [Alisertib] + N=C(N)NC(=N)NCCc1ccccc1 [Phenformin] (partner 250 µM)
Summary of the method: (§1)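 Nuclei were stained with Hoechst during a one-step fixation (final 0.05% Triton X-100, 1% formaldehyde, 1 ug/ml Hoechst) carried out 5 days after dosing, then counted on 4× images. The cells, lung cancer lines in 1536-well plates, had been dosed by pin tool the day after seeding with one drug alone or a fixed anchor-drug dose plus five library-drug doses (not always all listed) in √10 steps. Relative viability is the nuclei count in treated wells divided by that in vehicle wells, and each value is the median of duplicate plates.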

Alisertib + Olaparib = compound: COc1cc(Nc2ncc3c(n2)-c2ccc(Cl)cc2C(c2c(F)cccc2OC)=NC3)ccc1C(=O)O [Alisertib] + O=C(c1cc(Cc2n[nH]c(=O)c3ccccc23)ccc1F)N1CCN(C(=O)C2CC2)CC1 [Olaparib] (partner 8 µM)
Summary of the method: as §1

Alisertib + Trametinib = compound: COc1cc(Nc2ncc3c(n2)-c2ccc(Cl)cc2C(c2c(F)cccc2OC)=NC3)ccc1C(=O)O [Alisertib] + CC(=O)Nc1cccc(-n2c(=O)n(C3CC3)c(=O)c3c(Nc4ccc(I)cc4F)n(C)c(=O)c(C)c32)c1 [Trametinib] (partner 0.02 µM)
Summary of the method: as §1

Alisertib = compound: COc1cc(Nc2ncc3c(n2)-c2ccc(Cl)cc2C(c2c(F)cccc2OC)=NC3)ccc1C(=O)O [Alisertib]
Summary of the method: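 A plate was accepted only when its control CV was below 25% and the cells had doubled at least once. Viability is defined from nuclear counts as treated wells divided by vehicle wells, with the median taken across plates. That median covers lung cancer cell lines grown in 1536-well plates, dosed by pinning at five √10-spaced library-drug concentrations, and counted in MetaXpress from 4× Hoechst images after 5 days.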

| Cell Line | relative viability (Alisertib + Phenformin; first compound 0.005 µM) | relative viability (Alisertib + Phenformin; first compound 0.01581 µM) | relative viability (Alisertib + Phenformin; first compound 0.05 µM) | relative viability (Alisertib + Phenformin; first compound 0.1581 µM) | relative viability (Alisertib + Phenformin; first compound 0.5 µM) | relative viability (Alisertib + Olaparib; first compound 0.005 µM) | relative viability (Alisertib + Olaparib; first compound 0.01581 µM) | relative viability (Alisertib + Olaparib; first compound 0.05 µM) | relative viability (Alisertib + Olaparib; first compound 0.1581 µM) | relative viability (Alisertib + Olaparib; first compound 0.5 µM) | relative viability (Alisertib + Trametinib; first compound 0.005 µM) | relative viability (Alisertib + Trametinib; first compound 0.01581 µM) | relative viability (Alisertib + Trametinib; first compound 0.05 µM) | relative viability (Alisertib + Trametinib; first compound 0.1581 µM) | relative viability (Alisertib + Trametinib; first compound 0.5 µM) | relative viability (Alisertib; 0.005 µM) | relative viability (Alisertib; 0.01581 µM) | relative viability (Alisertib; 0.05 µM) | relative viability (Alisertib; 0.1581 µM) | relative viability (Alisertib; 0.5 µM) |
| --- | --- | --- | --- | --- | --- | --- | --- | --- | --- | --- | --- | --- | --- | --- | --- | --- | --- | --- | --- | --- |
| NCI-H1755 | 0.558 | 0.498 | 0.517 | 0.397 | 0.262 | 0.814 | 0.792 | 0.532 | 0.509 | 0.287 | 0.742 | 0.712 | 0.474 | 0.426 | 0.305 | 0.939 | 0.963 | 0.805 | 0.386 | 0.36 |
| NCI-H1437 | 0.236 | 0.286 | 0.251 | 0.142 | 0.118 | 0.585 | 0.47 | 0.383 | 0.257 | 0.179 | 0.391 | 0.489 | 0.279 | 0.21 | 0.179 | 0.896 | 0.836 | 0.605 | 0.344 | 0.203 |
| NCI-H2085 | 0.597 | 0.651 | 0.42 | 0.259 | 0.327 | 0.74 | 0.723 | 0.4 | 0.335 | 0.35 | 0.505 | 0.496 | 0.264 | 0.183 | 0.246 | 0.936 | 0.955 | 0.572 | 0.327 | 0.385 |
| H3255 | 0.329 | 0.338 | 0.313 | 0.299 | 0.294 | 0.547 | 0.566 | 0.385 | 0.292 | 0.24 | 0.662 | 0.637 | 0.441 | 0.309 | 0.295 | 0.94 | 0.859 | 0.586 | 0.251 | 0.205 |
| NCI-H661 | 0.267 | 0.288 | 0.271 | 0.246 | 0.29 | 0.735 | 0.562 | 0.397 | 0.355 | 0.357 | 0.514 | 0.547 | 0.442 | 0.341 | 0.338 | 1.01 | 0.965 | 0.663 | 0.415 | 0.374 |
| LCLC-103H | 0.305 | 0.304 | 0.316 | 0.175 | 0.187 | 0.598 | 0.709 | 0.356 | 0.357 | 0.353 | 0.669 | 0.69 | 0.345 | 0.359 | 0.437 | 0.903 | 1.04 | 0.875 | 0.392 | 0.293 |
| LOU-NH91 | 0.582 | 0.668 | 0.508 | 0.372 | 0.32 | 0.89 | 0.871 | 0.63 | 0.464 | 0.399 | 0.783 | 0.751 | 0.663 | 0.513 | 0.425 | 0.938 | 0.958 | 0.734 | 0.478 | 0.398 |
| NCI-H1650 | 0.38 | 0.381 | 0.167 | 0.137 | 0.141 | 0.813 | 0.61 | 0.16 | 0.163 | 0.204 | 0.558 | 0.565 | 0.295 | 0.145 | 0.191 | 0.846 | 0.736 | 0.289 | 0.192 | 0.224 |
| NCI-H3122 | 0.376 | 0.371 | 0.37 | 0.248 | 0.142 | 0.627 | 0.717 | 0.41 | 0.261 | 0.222 | 0.238 | 0.214 | 0.198 | 0.176 | 0.131 | 0.943 | 0.977 | 0.831 | 0.405 | 0.295 |
| RERF-LC-KJ | 0.382 | 0.377 | 0.246 | 0.219 | 0.233 | 0.883 | 0.687 | 0.25 | 0.223 | 0.251 | 0.872 | 0.819 | 0.357 | 0.301 | 0.198 | 0.929 | 0.792 | 0.597 | 0.254 | 0.247 |
| NCI-H1651 | 0.218 | 0.222 | 0.147 | 0.101 | 0.175 | 0.166 | 0.157 | 0.12 | 0.112 | 0.126 | 0.799 | 0.654 | 0.52 | 0.258 | 0.154 | 0.859 | 0.892 | 0.571 | 0.298 | 0.209 |
| NCI-H2087 | 0.423 | 0.372 | 0.13 | 0.12 | 0.105 | 0.549 | 0.527 | 0.13 | 0.126 | 0.108 | 0.243 | 0.221 | 0.149 | 0.134 | 0.0971 | 0.941 | 0.807 | 0.312 | 0.176 | 0.201 |
